Test results as given in patent publication US20250250265A1, “BENZOTHIAZOLE-PHENYLSULFONYL-PIPERIDINE ANALOGS AS ACTIVATORS OF NACYLPHOSPHATIDYLETHANOLAMINE HYDROLYZING PHOSPHOLIPASE D” (priority 2022, published 2025).
Entries after “also recorded” stand apart in the source; their conditions may differ.

Columns and labels:
[1] = molecular target: T1, NAPE-PLD activity of RAW264.7 macrophages (Mus musculus, UniProt Q8BH82); test: Cell-based NAPE-PLD activity in RAW264.7 macrophages (PED-A1 with orlistat); settings: for 10 μM Mϕ % NAPE-PLD activity: Table 2, 10 μM compound, vehicle = 100%; for In-cell NAPE-PLD activity in RAW 264.7 (10 μM) with PED-A1 or flame-NAPE as substrate: Table 3; for effect on NAPE-PLD activity in RAW264.7 cells: graded concentrations (FIG. 17A); for Emax, Nape-pld activity in RAW264.7 cells: FIG. 17A, PED-A1
T1 construct: endogenous in cells; host or cells: RAW264.7
T1 sequence (Q8BH82 1-396): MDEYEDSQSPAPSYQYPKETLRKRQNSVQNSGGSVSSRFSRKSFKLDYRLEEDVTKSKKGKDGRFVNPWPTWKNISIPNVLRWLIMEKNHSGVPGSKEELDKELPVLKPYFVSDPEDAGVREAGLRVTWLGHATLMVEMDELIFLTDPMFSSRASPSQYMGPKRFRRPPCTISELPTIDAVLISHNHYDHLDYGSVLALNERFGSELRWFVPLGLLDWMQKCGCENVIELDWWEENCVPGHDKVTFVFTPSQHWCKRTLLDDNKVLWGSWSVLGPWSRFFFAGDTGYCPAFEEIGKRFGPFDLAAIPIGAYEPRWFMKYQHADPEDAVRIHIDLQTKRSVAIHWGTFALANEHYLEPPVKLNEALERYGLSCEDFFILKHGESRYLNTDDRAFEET
Description: (§1) NAPE-PLD activity was measured in cells as previously described, except that FluoroBrite DMEM (Gibco A1896701) was used as media. See Zarrow et al., J. Lipid Res. 63(1): 100156 (2022). For RAW264.7 assays, PED-A1 (3.6 μM final) was used as the substrate with 10 μM orlistat added to inhibit PLA1 activity, while for HepG2 cells, flame-NAPE was used (with no orlistat added).

[2] = molecular target: T2, Fatty Acid Amide Hydrolase (FAAH) (Homo sapiens, UniProt O00519); test: FAAH activity assay (Cayman Chemicals); type: biochemical; settings: for inhibition at 33 µM: 33 μM compound, compared to vehicle (0%); for Remaining FAAH Activity (33 μM): Table 3; for inhibition of FAAH activity: graded concentrations up to 33 μM
T2 construct: purchased Cayman Chemicals
T2 sequence (O00519 1-579): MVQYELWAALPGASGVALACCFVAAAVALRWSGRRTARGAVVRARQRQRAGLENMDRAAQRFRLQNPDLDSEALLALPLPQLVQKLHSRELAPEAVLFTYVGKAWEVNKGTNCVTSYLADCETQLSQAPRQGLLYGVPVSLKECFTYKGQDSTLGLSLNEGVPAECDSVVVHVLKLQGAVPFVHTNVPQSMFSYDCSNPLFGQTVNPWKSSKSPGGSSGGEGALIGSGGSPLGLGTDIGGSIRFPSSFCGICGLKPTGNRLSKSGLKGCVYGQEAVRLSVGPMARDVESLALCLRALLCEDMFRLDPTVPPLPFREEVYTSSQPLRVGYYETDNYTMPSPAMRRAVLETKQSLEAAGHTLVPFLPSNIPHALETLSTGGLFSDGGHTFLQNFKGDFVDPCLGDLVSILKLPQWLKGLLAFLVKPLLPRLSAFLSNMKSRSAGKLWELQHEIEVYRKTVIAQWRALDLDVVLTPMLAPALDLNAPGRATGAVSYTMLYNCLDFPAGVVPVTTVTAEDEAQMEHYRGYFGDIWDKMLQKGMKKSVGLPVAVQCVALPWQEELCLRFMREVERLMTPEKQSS
Description: Concentration response curves were plotted for VU534 for the enzymes fatty acid amide hydrolase (FAAH) and soluble epoxide hydrolase (sEH).
The fluorescence interference assay was performed using the same method as the HTS assay, but with BODIPY-FL C5 (Thermo Fisher Scientific) used in place of PED-A1. sEH and FAAH activity assays were performed according to the manufacturer's specifications (Cayman Chemicals).

[3] = tested on: RAW264.7 mouse macrophages; test: Cytotoxicity (MTT) in RAW264.7 macrophages; type: cell-based; settings: for 33 μM Mϕ % Viability: Table 2, 33 μM compound; for % viability RAW 264.7 (33 μM): Table 3; for cytotoxicity in RAW264.7 cells: up to / at 30 μM
Description: (§2) Cytotoxicity was measured using MTT as previously described except that the studies used 96-well plates with 100 μL of 0.3 mg/mL MTT solution was added after 24 h of treatment and then replaced after 3 h with 0.1 M HCl in isopropanol. See Aggarwal et al., J. Biol. Chem. 295(21): 7289-7300 (2020). Viability was expressed as percent absorbance at 560 nm relative to vehicle controls.

[4] = molecular target: T3, NAPE-PLD activity of HepG2 cells (Homo sapiens, UniProt Q6IQ20); test: Cell-based NAPE-PLD activity in HepG2 cells (flame-NAPE); settings: for In-cell NAPE-PLD activity in HepG2 (10 μM) with PED-A1 or flame-NAPE as substrate: Table 3; for Emax / EC50: HepG2 cells; for Emax: % maximal induced activity (Table 2, Example 7); for EC50: flame-NAPE (Table 2, Example 7); for effect on NAPE-PLD activity in HepG2 cells: graded concentrations
T3 construct: endogenous in cells; host or cells: HepG2
T3 sequence (Q6IQ20 whole entry): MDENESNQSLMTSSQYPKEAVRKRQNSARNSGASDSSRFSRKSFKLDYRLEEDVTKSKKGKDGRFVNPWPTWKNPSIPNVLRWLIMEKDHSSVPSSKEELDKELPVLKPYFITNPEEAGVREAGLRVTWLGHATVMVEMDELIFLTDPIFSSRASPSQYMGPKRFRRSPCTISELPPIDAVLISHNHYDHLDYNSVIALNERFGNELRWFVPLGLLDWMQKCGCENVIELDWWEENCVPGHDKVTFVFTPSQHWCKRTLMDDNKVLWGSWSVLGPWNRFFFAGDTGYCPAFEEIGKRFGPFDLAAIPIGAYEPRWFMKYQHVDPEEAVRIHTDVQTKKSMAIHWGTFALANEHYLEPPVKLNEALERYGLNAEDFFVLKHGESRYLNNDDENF
Description: In vitro models of the hepatic steatosis of non-alcoholic fatty liver disease (NAFLD) are well-established, with the primary method being incubation of primary human hepatocytes or hepatocyte cell lines such as HepG2, HuH7, HepaRG, with oleic acid and palmitic acid for 24 to 48 h, then measuring the resulting steatosis, lipid peroxidation, apoptosis, and inflammatory gene expression. Using flame-NAPE to measure NAPE-PLD activity in the human hepatoma HepG2 cell line, the experimental data confirmed that VU534 activated NAPE-PLD in human cells (AC50 940 nM; max % bA 155%). Bithionol (10 μM) reduced HepG2 flame-NAPE hydrolysis by >67%.
as §1

[5] = tested on: HepG2 human hepatocytoma cells; test: Cytotoxicity (MTT) in HepG2 cells; type: cell-based; settings: for % HepG2 viability (33 μM): Table 3; for cytotoxicity in HepG2 cells: up to / at 30 μM
Description: as §2

Row | Structure (SMILES) | 10 μM Mϕ % NAPE-PLD activity [1] | inhibition at 33 µM [2] | In-cell NAPE-PLD activity in RAW 264.7 (10 μM) with PED-A1 or flame-NAPE as substrate [1] | In-cell NAPE-PLD activity in HepG2 (10 μM) with PED-A1 or flame-NAPE as substrate [4] | Remaining FAAH Activity (33 μM) [2] | 33 μM Mϕ % Viability [3] | % viability RAW 264.7 (33 μM) [3] | % HepG2 viability (33 μM) [5] | other results
1 | Cc1cccc2sc(NC(=O)C3CCN(S(=O)(=O)c4cnn(C)c4)CC3)nc12 [MRJ-058D] | 100% | < 15% | – | – | – | >85% | – | – | –
2 | O=C(Nc1nc2ccccc2s1)C1CCN(S(=O)(=O)c2cccnc2)CC1 [VU203] | – | – | – | 122% | 79% | – | 57% | 41% | –
3 | Cc1cccc2sc(NC(=O)C3CCN(S(=O)(=O)c4ccc(F)c(Cl)c4)CC3)nc12 [MRJ-058B] | 135% | < 15% | – | – | – | >85% | – | – | –
4 | Cc1cc(C)c2sc(NC(=O)C3CCN(S(=O)(=O)c4ccc(F)cc4)CC3)nc2c1 [VU534, N-(5,7-Dimethylbenzo[d]thiazol-2-yl)-1-((4-fluorophenyl)sulfonyl)piperidine-4-carboxamide] | 140% | < 15% | 139% | 211% | 86% | >85% | 89% | 91% | Emax, Nape-pld activity in RAW264.7 cells [1]: 1.6 fold; effect on NAPE-PLD activity in RAW264.7 cells [1]: significantly increased NAPE-PLD activity; Emax, NAPE-PLD activity of HepG2 cells ([4]; FIG. 18B, flame-NAPE): 1.6 fold; AC50 ([4]; HepG2, flame-NAPE (Example 7)): 940 nM; max % bA in HepG2 cells ([4]; HepG2, flame-NAPE (Example 7)): 155%; Emax [4]: 145%; EC50 [4]: 2400 nM; effect on NAPE-PLD activity in HepG2 cells ([4]; flame-NAPE): increased NAPE-PLD activity; also recorded: enhances NAPE-PLD activity; inhibition of FAAH activity [2]: no inhibition of FAAH; also recorded: only weak inhibition; also recorded: does not inhibit; cytotoxicity in RAW264.7 cells [3]: minimal cytotoxicity; cytotoxicity in HepG2 cells [5]: minimal cytotoxicity
5 | Cc1cccc2sc(NC(=O)C3CCN(S(=O)(=O)c4cnn(C)c4)CC3)nc12 [VU210] | – | – | 98% | 124% | 89% | – | 86% | 67% | –
6 | Cc1ccc(C)c2sc(NC(=O)C3CCN(S(=O)(=O)c4ccc(F)cc4)CC3)nc12 [VU533] | – | – | – | – | – | – | – | – | Emax, Nape-pld activity in RAW264.7 cells [1]: 2.2 fold; effect on NAPE-PLD activity in RAW264.7 cells [1]: significantly increased NAPE-PLD activity; Emax, NAPE-PLD activity of HepG2 cells ([4]; FIG. 18B, flame-NAPE): 1.6 fold; effect on NAPE-PLD activity in HepG2 cells ([4]; flame-NAPE): increased NAPE-PLD activity; inhibition of FAAH activity [2]: only weak inhibition; cytotoxicity in RAW264.7 cells [3]: no cytotoxicity; cytotoxicity in HepG2 cells [5]: no cytotoxicity
7 | Cc1cccc2sc(NC(=O)C3CCN(S(=O)(=O)c4cccnc4)CC3)nc12 [MRJ-058C] | 115% | < 15% | – | – | – | >85% | – | – | –

The next lines start with results.

Row | 10 μM Mϕ % NAPE-PLD activity [1] | inhibition at 33 µM [2] | In-cell NAPE-PLD activity in RAW 264.7 (10 μM) with PED-A1 or flame-NAPE as substrate [1] | In-cell NAPE-PLD activity in HepG2 (10 μM) with PED-A1 or flame-NAPE as substrate [4] | Remaining FAAH Activity (33 μM) [2] | Structure (SMILES) | 33 μM Mϕ % Viability [3] | % viability RAW 264.7 (33 μM) [3] | % HepG2 viability (33 μM) [5] | other results
8 | – | – | 114% | 148% | 86% | Cc1cccc2sc(NC(=O)C3CCN(S(=O)(=O)c4cccnc4)CC3)nc12 [VU211] | – | 88% | 72% | –
9 | – | – | – | 130% | 90% | O=C(Nc1nc2ccccc2s1)C1CCN(S(=O)(=O)c2ccc(F)c(Cl)c2)CC1 [VU233] | – | 111% | 69% | effect on NAPE-PLD activity in RAW264.7 cells [1]: no significant effect; also recorded: not significant; EC50, NAPE-PLD activity of HepG2 cells ([4]; FIG. 18B, flame-NAPE): not calculable; inhibition of FAAH activity [2]: only weak inhibition; cytotoxicity in RAW264.7 cells [3]: no cytotoxicity; cytotoxicity in HepG2 cells [5]: no cytotoxicity
10 | 125% | < 15% | 123% | – | 90% | Cc1ccc2sc(NC(=O)C3CCN(S(=O)(=O)c4ccc(F)cc4)CC3)nc2c1C [VU517] | 80% | 83% | – | Emax [4]: 185%; EC50 [4]: 8900 nM; effect on NAPE-PLD activity in HepG2 cells ([4]; flame-NAPE): enhances NAPE-PLD activity
11 | 105% | < 15% | 107% | – | 89% | Cc1ccc2nc(NC(=O)C3CCN(S(=O)(=O)c4ccc(F)cc4)CC3)sc2c1 [VU486] | >85% | 89% | – | –
12 | – | – | 102% | 125% | 97% | Cn1cc(S(=O)(=O)N2CCC(C(=O)Nc3nc4ccccc4s3)CC2)cn1 [VU227] | – | 106% | 66% | –
13 | 105% | < 15% | 107% | – | 90% | Cc1ccc(S(=O)(=O)N2CCC(C(=O)Nc3nc4c(C)cc(C)cc4s3)CC2)cc1 [VU575] | >85% | 85% | – | Emax [4]: 145%; EC50 [4]: 3100 nM; effect on NAPE-PLD activity in HepG2 cells ([4]; flame-NAPE): enhances NAPE-PLD activity
14 | 155% | 25% | 155% | – | 75% | Cc1cc2nc(NC(=O)C3CCN(S(=O)(=O)c4ccc(F)cc4)CC3)sc2cc1C [VU536] | >85% | 114% | – | –
15 | – | – | 136% | 206% | 88% | Cc1cccc2sc(NC(=O)C3CCN(S(=O)(=O)c4ccc(F)c(Cl)c4)CC3)nc12 [VU209] | – | 88% | 73% | –
